{
  "source": "patent US4737505A",
  "about": "“Analgesic 4-substituted indoles” (priority 1984, dated 1988)",
  "key": {"opiate receptor K": {"target": "T1, opiate receptor K (Cavia porcellus, UniProt P41144)", "T1 construct": "Membrane residues prepared from guinea-pig cerebellum; from tissue; host or cells: guinea-pig cerebellum membranes", "T1 sequence (P41144 whole entry)": "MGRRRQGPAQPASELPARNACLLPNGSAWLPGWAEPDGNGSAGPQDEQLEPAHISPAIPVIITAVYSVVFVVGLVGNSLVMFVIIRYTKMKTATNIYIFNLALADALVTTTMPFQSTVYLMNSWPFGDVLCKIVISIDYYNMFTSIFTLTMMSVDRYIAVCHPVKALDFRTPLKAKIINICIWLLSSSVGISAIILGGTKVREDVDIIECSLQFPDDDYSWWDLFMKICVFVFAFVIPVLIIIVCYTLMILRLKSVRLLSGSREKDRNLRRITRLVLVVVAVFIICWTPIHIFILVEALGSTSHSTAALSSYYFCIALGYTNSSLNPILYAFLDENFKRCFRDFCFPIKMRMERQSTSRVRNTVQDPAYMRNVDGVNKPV", "test": "Bond to the opiate receptor K in vitro (displacement of 3H Ethylketocyclazocin, guinea-pig cerebellum membranes)", "format": "binding", "conditions": "for IC50: 3H Ethylketocyclazocin 1 nM, guinea-pig cerebellum membranes, Tris buffer pH 7.7, 25° C., 40 minutes, read-out: 50% inhibiting concentration (IC50); for relative bond affinity (RBA): relative to product U 50 488 H as reference", "experimental": "(2) Bond to the opiate receptor K in vitro\nMembrane residues prepared from guinea-pig cerebellum kept at -30° C. for about 30 days were used and these residues were suspended in Tris buffer pH 7.7. Fractions of 2 ml were distributed into hemolysis tubes, and […] Ethylketocyclazocin 1 nM and the product to be studied were added. The products were first tested to 5×10^-6 M in triplicate. When the products tested displaced more than 50% of the radioactivity specifically linked to the receptor, they were tested again according to a range of 7 doses to determine the dose which inhibited by 50% the radioactivity specifically linked to the receptor. In this way, the 50% inhibiting concentration was determined.\nThe non-specific bond was determined by the addition of a product known as U 50488 H(ref. Up. John) to 10^-5 M in triplicate. After incubating at 25° C. for 40 minutes, returning to the water-bath at 0° C. for 5 minutes, filtering under reduced pressure, and rinsing in Tris buffer pH 7.7, the radioactivity was counted in the presence of scintillating Trition. The results were expressed: either directly as 50% inhibiting concentration (IC50), that is as a concentration of the product studied, expressed in nM, necessary to displace 50% of the specific radioactivity fixed on the receptor studied, or in relative bond affinity (=RBA) taking the product U 50 488 H as reference [formula]"}, "opiate receptor μ": {"target": "T2, opiate receptor μ (Rattus norvegicus, UniProt P33535)", "T2 construct": "prepared from brains of rats; from tissue; host or cells: rat brain membranes", "T2 sequence (P33535 whole entry)": "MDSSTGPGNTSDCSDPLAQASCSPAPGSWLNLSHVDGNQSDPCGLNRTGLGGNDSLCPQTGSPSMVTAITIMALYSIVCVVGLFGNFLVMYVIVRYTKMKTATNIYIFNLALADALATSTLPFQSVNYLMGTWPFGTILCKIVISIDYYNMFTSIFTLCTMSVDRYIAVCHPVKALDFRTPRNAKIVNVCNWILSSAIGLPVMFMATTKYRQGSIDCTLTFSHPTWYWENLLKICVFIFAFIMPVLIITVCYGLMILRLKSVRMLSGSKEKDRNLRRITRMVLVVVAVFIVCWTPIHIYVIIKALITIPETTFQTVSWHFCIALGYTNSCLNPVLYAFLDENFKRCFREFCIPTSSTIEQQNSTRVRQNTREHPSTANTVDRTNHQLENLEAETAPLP", "test": "Bond to the opiate receptor μ in vitro (displacement of 3H dihydromorphine, rat brain membranes)", "format": "binding, rats", "conditions": "for IC50: 3H dihydromorphine 0.7 nM, rat brain membranes, Tris buffer pH 7.7, 25° C., 40 minutes, read-out: 50% inhibiting concentration (IC50); for relative bond affinity (RBA): relative to morphine=100", "experimental": "(1) Bond to the opiate receptor μ in vitro\nMembrane residues preserved at -30° C. for about 30 days and prepared from brains of rats were used in this test and these residues were suspended in Tris buffer pH 7.7. Fractions of 2 ml were distributed into hemolysis tubes and ^3 H dihydromorphine 0.7 nM and the product to be studied were added. The products were first of all tested with 5×10^-6 M in triplicate. When the tested products displaced more than 50% of the radioactivity specifically linked to the receptor, they were tested again according to a range of 7 doses to determine the dose which inhibited by 50% the radioactivity specifically linked to the receptor. The 50% inhibiting concentration was thus determined.\nThe non-specific bond was determined by addition of 10^-5 M morphine in triplicate. After incubating at 25° C. for 40 minutes, returning to the water-bath at 0° C. for 5 minutes, filtering under vacuum, rinsing with Tris buffer pH 7.7, the radioactivity was counted in the presence of scintillating Trition. The results were expressed: either directly as 50% inhibiting concentration (IC50), that is as a concentration of the product studied, expressed in nM, necessary to displace 50% of the specific radioactivity fixed on the receptor studied, or in relative bond affinity (RBA), taking morphine=100 as a reference [formula]"}, "[1]": {"test": "Analgesic activity, warm plate test", "format": "in vivo", "conditions": "Mus musculus, 1 h, female mice, 56° C. plate, 60 minutes after treatment, read-out: AD100 (dose which increased the reaction time by 100%)", "experimental": "Female mice weighing from 22 to 24 g were placed one by one on a copper plate maintained at 56° C. The reaction to pain was shown by the animals licking their front paws and the time of this reaction was noted and was only retained when the mice reacted in less than 8 seconds. The animals were divided into equal groups and were treated with the products to be studied, one group receiving only the vehicle. The time of reaction to pain was again measured 30 to 60 minutes after the treatment and the active dose or AD100 was the dose which increased the reaction time by 100%, 60 minutes after the treatment, taking account of the variations of the reaction time of the control animals."}},
  "note": "Read-outs that look alike come from different tables or passages of the source.",
  "data": [
    {"smiles": "CCCN1CC=C(c2cccc3[nH]ccc23)CC1", "note": "[Example 7, 4-(1-propyl-1,2,3,6-tetrahydropyridin-4-yl)-1H-indole]", "values": [
      {"measurement": "IC50", "setting": "opiate receptor K", "value": 182, "unit": "nM"},
      {"measurement": "relative bond affinity (RBA)", "setting": "opiate receptor K", "value": 1.4}
    ]},
    {"smiles": "C=CCOc1ccccc1OCC(O)CN1CC=C(c2cccc3[nH]ccc23)CC1", "note": "(stereo not drawn) [Example 11, 4-(1H-indol-4-yl)-α-[[2-(2-propenyloxy)-phenoxy]-methyl]-1,2,3,6-tetrahydro-1-pyridine ethanol]", "values": [
      {"measurement": "IC50", "setting": "opiate receptor μ", "value": 9.43, "unit": "nM"},
      {"measurement": "relative bond affinity (RBA)", "setting": "opiate receptor μ", "value": 22.43}
    ]},
    {"smiles": "C=CCOc1ccccc1OCC(O)CN1CC=C(c2cccc3c2CC(=O)N3)CC1", "note": "(centres unmarked) [Example 13, 1,3-dihydro-4-[1-[2-hydroxy-3-[2-(2-propenyloxy)-phenoxy]propyl]-1,2,3,6-tetrahydro-4-pyridinyl]-2H-indol-2-one]", "values": [
      {"measurement": "IC50", "setting": "opiate receptor μ", "value": 1.4, "unit": "nM"},
      {"measurement": "relative bond affinity (RBA)", "setting": "opiate receptor μ", "value": 270},
      {"measurement": "ED (100% increase in reaction time)", "setting": "[1]; oral route", "value": 20, "unit": "mg/kg"}
    ]},
    {"smiles": "COC1(c2cccc3[nH]ccc23)CCNCC1", "note": "[Example 14, 4-(4-methoxy-4-piperidinyl)-1H-indole]", "values": [
      {"measurement": "IC50", "setting": "opiate receptor μ", "value": 28, "unit": "nM"},
      {"measurement": "relative bond affinity (RBA)", "setting": "opiate receptor μ", "value": 13},
      {"measurement": "ED (100% increase in reaction time)", "setting": "[1]; central, intracerebral ventricle route", "value": 0.5, "unit": "mg/kg"}
    ]},
    {"smiles": "Cl.O=C1Cc2c(cccc2C2=CCN(CCc3ccccc3)CC2)N1", "note": "[Example 26, 1,3-dihydro-4-[1-(2-phenylethyl)-1,2,3,6-tetrahydro-4-pyridinyl]-2H-indole-2-one hydrochloride]", "values": [
      {"measurement": "IC50", "setting": "opiate receptor μ", "value": 59, "unit": "nM"},
      {"measurement": "relative bond affinity (RBA)", "setting": "opiate receptor μ", "value": 8.2}
    ]},
    {"smiles": "Cl.O=C1Cc2c(cccc2C2=CCN(CCOc3ccccc3)CC2)N1", "note": "[Example 29, 1,3-dihydro-4-[1-(2-phenoxyethyl)-1,2,3,6-tetrahydro-4-pyridinyl]-2H-indol-2-one hydrochloride]", "values": [
      {"measurement": "IC50", "setting": "opiate receptor μ", "value": 11, "unit": "nM"},
      {"measurement": "relative bond affinity (RBA)", "setting": "opiate receptor μ", "value": 23},
      {"measurement": "IC50", "setting": "opiate receptor K", "value": 152, "unit": "nM"},
      {"measurement": "relative bond affinity (RBA)", "setting": "opiate receptor K", "value": 1.1}
    ]},
    {"smiles": "Cl.O=C1Cc2c(cccc2C2=CCN(CCCC(=O)c3ccc(F)cc3)CC2)N1", "note": "[Example 32, 1,3-dihydro-4-[1-[(4-fluorophenyl)-4-oxobutyl]-1,2,3,6-tetrahydropyridin-4-yl]-2H-indole-2-one hydrochloride]", "values": [
      {"measurement": "IC50", "setting": "opiate receptor μ", "value": 3.5, "unit": "nM"},
      {"measurement": "relative bond affinity (RBA)", "setting": "opiate receptor μ", "value": 62},
      {"measurement": "IC50", "setting": "opiate receptor K", "value": 460, "unit": "nM"},
      {"measurement": "relative bond affinity (RBA)", "setting": "opiate receptor K", "value": 1.3}
    ]}
  ]
}
